One data set has as its system Ba/F3 KIF5B-RET. Description: Cell viability CellTiter-Glo 2.0. To be noted: Mus musculus, BaF3, 72 hours, mean±SD of three experiments. The format is cell-based. In general terms: In ATP-based viability assays light output follows the ATP content of the culture.
Data set [1] can be described thus: Preclinical efficacy in a mouse model (ED50). The format is in vivo. Conditions: oral. The protocol:
[…]. Based on the assumptions above, the maximum dose to be administered in this study may range from 500 mg BID to 1500 mg BID.

Data set [2] in a line: Brain migration property: plasma and brain concentration after single oral dose. The format is in vivo, mouse.
In data set [3] the test system is PDX tumors (CCDC6-RET), cabozantinib-resistant. The data set can be described thus: PDX from patient no longer responding to cabozantinib. The format is in vivo, mouse.
A short description of data set [4]: 4-week GLP toxicity study in dog. The format is in vivo. As for the experimental part:
In the 4-week GLP toxicity study in dog, animals received 0, 15, 30, and 45 mg/kg BID HM06-01/TAS0953-01 by oral gavage for 4 consecutive weeks followed by 2-week recovery period. In the high dose of 45 mg/kg BID group, test item-related mortality was observed: 2 males were prematurely sacrificed on Day 17 and Day 18 for ethical reasons (severe clinical signs associated with a significant body weight loss). The main cause of death was the mild to moderate multifocal subacute inflammation with alveolar or bronchioalveolar distribution, accompanied in one male with alveolar foreign body granulomas. In the other male, minimal pancreatic acinar vacuolation/apoptosis with prostatic acinar apoptosis were noted, for which the relationship with test item cannot be excluded.

A short description of data set [5]: Predicted human clearance and expected human exposure. Conditions: predicted by well-stirred modeling from recombinant CYPs data. As for the experimental part:
The maximum administered dose may range from 500 mg BID to 1500 mg BID and provide a daily exposure AUC0-24,ss≥22000 ng*h/mL and ≤63000 ng*h/mL. […] Based on the assumptions above, the maximum dose to be administered in this study may range from 500 mg BID to 1500 mg BID.

Where “and” joins values, the source holds several entries; their conditions need not be identical. Equal entries are not always repeated.

As for `CO[C@]1(C(=O)N[C@@H](C)c2ccc(-n3cc(F)cn3)nc2)CC[C@H](c2nc(C)cc(Nc3cc(C)[nH]n3)n2)CC1` [BLU-667, pralsetinib], the GI50 (commonly the concentration giving 50% growth inhibition) with Ba/F3 KIF5B-RET was found to be 6.51 ± 2.13 nM.

In the case of `COCc1ccc(NC(=O)c2c(C#CCN3CCOCC3)n(C3(C)CC3)c3ncnc(N)c23)cc1` [HM06/TAS0953, 4-amino-N-(4-(methoxymethyl)phenyl)-7-(1-methylcyclopropyl)-6-(3-morpholinoprop-1-yn-1-yl)-7H-pyrrolo[2,3-d]pyrimidine-5-carboxamide], in data set [1], the ED50 (as a rule, the midpoint of the dose-response relation) came out at 3 mg/kg/day. In data set [2] (1 hr, individual mice), the “Kp,uu,brain” value worked out at 1.61; the “Unbound Concentration brain” value is 4.29 μM or nmol/g and 2.33 μM or nmol/g; the “Unbound Concentration plasma” value is 2.16 μM or nmol/g and 1.45 μM or nmol/g. This molecule also gave a Kp uu at 1 h in data set [2] (BALB/cAJcl-nu/nu, mouse, brain / plasma (unbound), oral, individual mice) of 1.98. For the same molecule, the Kp uu at 1 h in data set [2] (BALB/cAJcl-nu/nu, mouse, brain / plasma, non-binding (unbound) concentrations, oral, mean of 2 mice) amounted to 1.8. Besides, the Kp (commonly tissue or fluid exposure divided by exposure in the circulation) at 1 h in data set [2] (BALB/cAJcl-nu/nu, mouse, brain / plasma, oral, individual mice, Cbrain/Cplasma) amounted to 1.88. Further, in data set [2] (single oral dose, 1 hr, individual mice), the “Concentration Plasma” value was 29.3 μM or nmol/g and 19.6 μM or nmol/g. Also, in data set [2] (single oral dose, 1 hr, individual mice, homogenate x4), the Concentration brain was 55.0 μM or nmol/g and 29.9 μM or nmol/g. In addition, the tumor shrinkage in data set [3] (50 mg/kg BID) was found to be 43.7±3.8%. The tumor regression entry in data set [3] (50 mg/kg BID or 100 mg/kg QD) was “approximately 50%”. Further, the tumor shrinkage in data set [3] (100 mg/kg QD) stood at 47.7±0.9%. Also, the “systemic exposure vs dose, AUC(0-t)” value in data set [4] (15-45 mg/kg BID) is “increased slightly more than dose-proportionally”. Further, in data set [4] (beagle, dog, in vivo, oral, post first daily dose), the Tmax (in general, the time at which the peak concentration occurs) was in the range of 1 to 8 h. Also, the human clearance in data set [5] was 6.4 mL/min/kg.

(Values after US20240000791A1, “Methods of Using 4-Amino-N-[4-(Methoxymethyl)Phenyl]-7-(1-Methylcyclopropyl)-6-(3-Morpholinoprop-1-YN-1-YL)-7H-Pyrrolo[2,3-D]Pyrimidine-5-Carboxamide for the Treatment of Tumors” (Helsinn Healthcare SA, priority 2020, published 2024).)
